Measurements: US20190142832A1, “Marker for Cancer Prognosis and Methods Related Thereto” (National Jewish Health, priority 2007, published 2019)
Where two headings read alike, the source gives them in different places.

Assays:
[1] = system: adenosine A2A receptor mRNA; experiment: Northern blot of adenosine A2A receptor mRNA in human endothelial cells (HLMVEC, HCAEC); type: cell-based
Procedure: To assess the role of adenosine receptors in hypoxia, primary HLMVEC were exposed to air or hypoxia. For detecting mRNA, twenty-four hours post-transduction or treatment, cells were washed twice with Hank's balanced salt solution (HBSS) and harvested in GITC. RNA was purified using the CsCl method as described earlier (Riddle et al., Am J Physiol Lung Cell Mol Physiol 278, L407 (2000). 15 μg total RNA were resolved on 1% formaldehyde-agarose gels and transferred to nylon membranes. Probes used for northern blot were derived from human A2A cDNA and human A2B cDNA kindly provided by Dr. Marlene Jacobson, Merck Research Labs, West Point, Pa. The VEGF cDNA was obtained from the Harvard Proteomic Institute. The cDNA probes were labeled with [^32P]α-dCTP (ICN, Irvine, Calif.) by random priming and hybridized with the membrane for 18 hrs at 42° C. Membranes were then washed and autoradiographed. For loading controls, membranes were stripped of radioactive probe in a 2% glyceraldehyde solution at 80° C. and rehybridized with an end-labeled 28S rRNA oligonucleotide (Ambion, Austin, Tex.). The intensity of the radiolabeled bands was measured using a PhosphorImager running ImageQuant software (Molecular Dynamics, Sunnyvale, Calif.). The same Northern Blot procedure was used in subsequent examples, unless specifically noted otherwise. Protein expression was detected using standard Western Blot methods described in Ahmad, Free Radic Biol Med. 40(7):1108(2006).

A2A receptor mRNA = A2A receptor mRNA expression in mouse derived endothelial cells SVEC and MB114; type: cell-based
Procedure: Primary human lung microvascular endothelial cells (HLMVEC), primary human coronary artery endothelial cells (HCAEC), primary pulmonary artery endothelial cells (HPAEC) and endothelial cell growth medium were obtained from Cambrex (Walkersville, Md.). Dimethyloxlylglycine (DMOG) was obtained from Frontier Scientific, Inc (Logan, Utah). HLMVEC and HCAEC were cultured in endothelial cell basal medium (EBM-2) supplemented with VEGF, human FGF, human EGF, hydrocortisone, ascorbic acid, insulin-like growth factor-1, GA-1000 (gentamycin/amphotericin-B), 5% fetal bovine serum as per the supplier's protocol. Murine brain microvascular endothelial cells (MB114) and SV-40 transformed mouse endothelial cells (SVEC) were cultured in DMEM supplemented with 10% FBS, penicillin and streptomycin. The same culture conditions were used in subsequent examples, unless specifically noted otherwise.
To assess the role of adenosine receptors in hypoxia, primary HLMVEC were exposed to air or hypoxia. […] The intensity of the radiolabeled bands was measured using a PhosphorImager running ImageQuant software (Molecular Dynamics, Sunnyvale, Calif.). […] Protein expression was detected using standard Western Blot methods described in Ahmad, Free Radic Biol Med. 40(7):1108(2006).

HLMVEC [2] = experiment: Matrigel tube formation (branching) assay in HLMVEC; type: cell-based, human
Procedure: Angiogenesis in HLMVEC was assessed using the Matrigel tube formation assay. Growth factor-reduced Matrigel matrix was coated onto 12-well plates and allowed to solidify at 37° C. for 30 min. HLMVEC's were then trypsinized and plated onto the Matrigel in the absence of growth factors or serum and incubated at 37° C. in a CO2 incubator. The A2A receptor agonist, CGS-21680, or the diluent control was included both in the Matrigel matrix and the overlying medium. Four hours after plating of cells, three randomly chosen fields from each well were photographed. Branch points were counted and plotted.

HLMVEC [3] = experiment: [3H]-thymidine incorporation proliferation assay in HLMVEC; type: cell-based, human; conditions: serum-starved, varying concentrations, 24 h
Procedure: Proliferation of HLMVEC was measured using [^3H]-thymidine incorporation. About 20,000 cells were plated in each well of a 24-well plate in endothelial cell complete medium. After 24 h, cells were washed once with HBSS and serum-starved in EBM-2 medium containing 1% FBS, hydrocortisone, ascorbic acid and GA-1000. After 24 h, cells were incubated with [^3H] thymidine (1 μCi/well) in the presence or absence of the adenosine A2A receptor agonist, CGS-21680, at varying concentrations for an additional 24 h. Subsequently, cells were washed twice with ice-cold PBS, precipitated with 0.1 N perchloric acid, and solubilized with 0.01 N NaOH containing 0.1% SDS prior to scintillation counting. Similarly, proliferation was also measured in cells transduced with Ad.A2A or Ad.LacZ at a multiplicity of infection of 10 pfu/cell.

MB114 cells = experiment: Tube formation of MB114 cells on collagen gel; type: cell-based, murine; conditions: 5 days
Procedure: MB114 cells (a microvascular endothelial cell line) were plated on collagen gel in presence of absence of the A2A receptor agonist CGS-21680 at a density of 80000 cells/well using a 24 well plate. After incubation for 5 days, photos from each well were taken randomly.

PI 3-kinase = PI 3-kinase activity in anti-p85 immunoprecipitate and phospho-Akt Western blot, HLMVEC; type: cell-based, human; conditions: 1 μM
Procedure: HLMVECs were cultured on 100 mm dishes. Cells were serum starved for 24 h before treating with 1 μM of CGS-21680 (Adenosine A2A receptor agonist) or the diluent control. Following treatment, lysates were prepared and −500 μg of protein was incubated with 20 μl of anti-p85-conjugated agarose (200 μg anti p85/200 μl agarose) for 2 h, after which the complex was precipitated. PI3-kinase activity was measured in the immunoprecipitate.

[4] = HLMVEC (donors) and HCAEC, Northern blot

## [Cl-].[Cl-].[Co+2] [CoCl2]
[1]
  adenosine A2A receptor steady-state mRNA levels: increases adenosine A2A receptor steady-state mRNA levels

## CC(=O)N(O)CCCCCNC(=O)CCC(=O)N(O)CCCCCNC(=O)CCC(=O)N(O)CCCCCN [DFO]
[1]; [4]
  adenosine A2A receptor steady-state mRNA levels: increases adenosine A2A receptor steady-state mRNA levels

## COC(=O)CNC(=O)C(=O)OC [DMOG, Dimethyloxlylglycine]
A2A receptor mRNA
  expression of A2A receptor mRNA levels: neither hypoxia nor HIF stabilization by DMOG altered the expression of A2A receptor mRNA levels
[1]; [4]
  adenosine A2A receptor steady-state mRNA levels: increases adenosine A2A receptor steady-state mRNA levels

## CCNC(=O)[C@H]1O[C@@H](n2cnc3c(N)nc(NCCc4ccc(CCC(=O)O)cc4)nc32)[C@H](O)[C@@H]1O [CGS-21680]
HLMVEC [2]; Matrigel, 4 h
  cell sprouting / formation of branches relative to control cells: increased cell sprouting resulting in formation of branches
HLMVEC [2]; Matrigel-matrix based assay, branch points 4 h after plating
  increase in branching compared to the diluent control: 37%
HLMVEC [3]
  cellular proliferation as assessed by 3[H]thymidine incorporation: increased cellular proliferation in a dose-dependent manner
MB114 cells
  tube formation: promotes tube formation in a dose dependent manner
PI 3-kinase
  expression of phosphorylated Akt (Western blot): increases expression of phosphorylated Akt
PI 3-kinase; serum starved 24 h
  PI3-kinase activity (phosphorylation of phosphoinositides, PIP3): increased PI3-kinase activity
